# Data published in patent publication US12122804B2, “γ-aminobutyric acid modulator crystal form X, preparation method and application thereof” (SHENZHEN RENTAI […]., priority 2019, dated 2024).
# Assays:
# [1] = assessment of data of WO2018039378A1: crystal transformation, XRPD at different temperatures; cited from earlier work
# [2] = Light stability of the crystal form (XRPD comparison); type: physicochemical; details: 25° C., 4500 Lux, 5 days and 10 days, FIG. 13
# Experimental: (§1) The crystal form X prepared in Example 5 is tested as follows.
# (1) Light stability: the test sample is placed in an environment having a temperature of 25° C. and a light condition of 4500 Lux for 5 days and 10 days, respectively, to test the stability of the crystal form.
# [3] = High-temperature stability of the crystal form (XRPD comparison); type: physicochemical; details: 60° C., 5 days and 10 days, FIG. 14
# Experimental: as §1
# (2) High-temperature stability: the test sample is placed at a temperature of 60° C. for 5 days and 10 days, respectively, to test the stability of the crystal form.
# [4] = Accelerated stability of the crystal form (XRPD comparison); type: physicochemical; details: 75% RH, 40° C., 5 days and 10 days, FIG. 15
# Experimental: as §1
# (3) Accelerated stability: the test sample is placed in an environment having a humidity of 75% RH and a temperature of 40° C. for 5 days and 10 days, respectively, to test the stability of the crystal form.
# [5] = High-humidity stability of the crystal form (XRPD comparison); type: physicochemical; details: 92.5% RH, 25° C., 5 days and 10 days, FIG. 16
# Experimental: as §1
# (4) High-humidity stability: the test sample is placed in an environment having a humidity of 92.5% RH and a temperature of 25° C. for 5 days and 10 days, respectively, to test the stability of the crystal form.
# [6] = Comparison of crystal form X with crystal form K (XRPD, FIG. 17; stability); type: physicochemical
smiles,measurement,setting,value
"C[C@@]1(O)CC[C@H]2[C@H](CC[C@@H]3[C@@H]2CC[C@]2(C)[C@@H](C(=O)Cn4cc(C#N)cn4)CC[C@@H]32)C1 [crystal form A, 3α-hydroxy-3β-methyl-21-(4-cyano-1H-pyrazol-1′-yl)-19-nor-5β-pregnan-20-one]",Crystal form stability (suitability as medicinal crystal form),[1],unstable
"C[C@@]1(O)CC[C@H]2[C@H](CC[C@@H]3[C@@H]2CC[C@]2(C)[C@@H](C(=O)Cn4cc(C#N)cn4)CC[C@@H]32)C1 [crystal form X, 3α-hydroxy-3β-methyl-21-(4-cyano-1H-pyrazol-1′-yl)-19-nor-5β-pregnan-20-one]",Light stability of the crystal form,[2],good light stability
same,High-temperature stability of the crystal form,[3],good high-temperature stability
same,Accelerated stability of the crystal form,[4],good accelerated stability
same,High-humidity stability of the crystal form,[5],good high-humidity stability
same,Stability relative to crystal form K,[6],better stability than the crystal form K
